The target of this assay is T1, Pru p 1.0101 (Prunus persica, UniProt Q2I6V8).
T1 construct: gene ypr-10
Nature of the assay: biochemical.

T1 sequence (Q2I6V8 1-160): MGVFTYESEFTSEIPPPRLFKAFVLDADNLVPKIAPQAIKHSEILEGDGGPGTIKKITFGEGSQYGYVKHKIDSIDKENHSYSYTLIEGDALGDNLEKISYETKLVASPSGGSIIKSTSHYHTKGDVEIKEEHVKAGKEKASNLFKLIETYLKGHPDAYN

As a reminder, the Kd is the concentration at which binding is half-saturated. As for `C/C(=C\CNc1ncnc2[nH]cnc12)CO` [trans-zeatin], the Kd is 1900 ± 400 µM.

These data come from paper PMC8323099 (Journal of Agricultural and Food Chemistry, 2021).
